The experiment has as its target hTREM2 (Homo sapiens, UniProt Q9NZC2). In words: TREM2 activity by cellular Syk phosphorylation (AlphaScreen/AlphaLISA) in TREM2/DAP12-HEK cells, used for Examples 1-305. The class given is cell-based. Also noted: expressed in transfected cells. Particulars: HEK293 Cells. The method, boiled down: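 Single-cell-cloned HEK293 cells overexpressing TREM2 and DAP12, seeded 20 h, exposed to test articles (1% final DMSO) for 45 min at room temperature. Lysates read for phospho-Syk (Tyr525/526) vs total Syk by AlphaScreen. Signal normalised as percent of control between isotype IgG and 100 nM anti-TREM2 antibody; 4-parameter logistic fit.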
For orientation: Alpha assays give light when donor and acceptor beads are brought close together.
hTREM2, sequence (Q9NZC2 19-230): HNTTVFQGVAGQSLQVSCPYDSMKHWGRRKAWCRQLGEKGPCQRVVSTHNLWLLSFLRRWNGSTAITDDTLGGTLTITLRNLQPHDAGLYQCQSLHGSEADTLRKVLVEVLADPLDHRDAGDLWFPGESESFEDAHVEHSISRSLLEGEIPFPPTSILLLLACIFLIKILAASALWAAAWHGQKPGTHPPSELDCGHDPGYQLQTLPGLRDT
hTREM2, sequence (O43914 22-113 partner): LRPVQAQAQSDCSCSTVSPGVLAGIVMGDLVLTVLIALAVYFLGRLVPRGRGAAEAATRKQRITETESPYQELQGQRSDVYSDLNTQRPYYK
One may read the EC50 as the concentration that produces a half-maximal response. A higher EC50 goes with a less potent agent. For the compound `Cc1nc2nc([C@@H]3C[C@@H](C)O[C@@H](c4cnn(C)c4)C3)cc(-c3ccc(Cl)cc3F)c2nc1C` [Example 284, 8-(4-chloro-2-fluorophenyl)-2,3-dimethyl-6-((2R,4R,6R)-2-methyl-6-(1-methyl-1H-pyrazol-4-yl)tetrahydro-2H-pyran-4-yl)pyrido[2,3-b]pyrazine], the concentration giving a half-maximal response (EC50) lay within 50 to 500 nM; the “hTREM2 Emax” value is “+ (Emax>45 and ≤100)”.
Regarding `Cc1ccc(-c2nc([C@@H]3CCO[C@@H](c4ccnc(C)c4)C3)nc3nc(C)c(C)nc23)c(F)c1` [Example 285, 4-(2-fluoro-4-methylphenyl)-6,7-dimethyl-2-((2R,4R)-2-(2-methylpyridin-4-yl)tetrahydro-2H-pyran-4-yl)pteridine], the EC50 lay in the range of 50 to 500 nM and the “hTREM2 Emax” value is “++++ (Emax>250)”.
For `Cc1ccc(-c2nc([C@H]3CCO[C@H](c4ccnc(C)c4)C3)nc3nc(C)c(C)nc23)c(F)c1` [Example 286, 4-(2-fluoro-4-methylphenyl)-6,7-dimethyl-2-((2S,4S)-2-(2-methylpyridin-4-yl)tetrahydro-2H-pyran-4-yl)pteridine], the EC50 was ≤ 50 nM; the “hTREM2 Emax” value was “+++ (Emax>150 and ≤250)”.
As to `Cc1ccc2c(-c3ccc(Cl)cc3F)nc([C@H]3CCO[C@@H](c4cnn(C)c4)C3)nc2n1` [Example 287, 4-(4-chloro-2-fluorophenyl)-7-methyl-2-((2R,4S)-2-(1-methyl-1H-pyrazol-4-yl)tetrahydro-2H-pyran-4-yl)pyrido[2,3-d] pyrimidine], the EC50 lay in the range of 500 to 3000 nM; the “hTREM2 Emax” value is “+++ (Emax>150 and ≤250)”.
Turning to `Cc1ccc2c(-c3ccc(Cl)cc3F)nc([C@@H]3CCO[C@H](c4cnn(C)c4)C3)nc2n1` [Example 288, 4-(4-chloro-2-fluorophenyl)-7-methyl-2-((2S,4R)-2-(1-methyl-1H-pyrazol-4-yl)tetrahydro-2H-pyran-4-yl)pyrido[2,3-d] pyrimidine], the EC50 was ≤ 50 nM; the “hTREM2 Emax” value was “++ (Emax>100 and ≤150)”.
Take `Cc1ccc2c(-c3ccc(F)cc3F)nc([C@H]3CCO[C@@H](c4cnn(C)c4)C3)nc2n1` [Example 289, 4-(2,4-difluorophenyl)-7-methyl-2-((2R,4S)-2-(1-methyl-1H-pyrazol-4-yl)tetrahydro-2H-pyran-4-yl)pyrido[2,3-d] pyrimidine]: the EC50 fell in the range of 3000 to 100000 nM; the “hTREM2 Emax” value was “++ (Emax>100 and ≤150)”.
On to `Cc1ccc2c(-c3ccc(F)cc3F)nc([C@@H]3CCO[C@H](c4cnn(C)c4)C3)nc2n1` [Example 290, 4-(2,4-difluorophenyl)-7-methyl-2-((2S,4R)-2-(1-methyl-1H-pyrazol-4-yl)tetrahydro-2H-pyran-4-yl)pyrido[2,3-d] pyrimidine], for which the EC50 was in the range of 50 to 500 nM; the “hTREM2 Emax” value was “+++ (Emax>150 and ≤250)”.
As to `Cc1nc2nc(N3CCO[C@@H](c4cnn(C)c4)C3)nc(-c3ccc(Cl)cn3)c2nc1C` [Example 291, (S)-4-(4-(5-chloropyridin-2-yl)-6,7-dimethylpteridin-2-yl)-2-(1-methyl-1H-pyrazol-4-yl)morpholine], the EC50 fell in the range of 50 to 500 nM and the “hTREM2 Emax” value is “++++ (Emax>250)”.
For `Cc1nc2nc(N3CCO[C@@H](c4cnn(C)c4)C3)nc(-c3ccc(F)cn3)c2nc1C` [Example 292, (S)-4-(4-(5-fluoropyridin-2-yl)-6,7-dimethylpteridin-2-yl)-2-(1-methyl-1H-pyrazol-4-yl)morpholine], the EC50 is 500 to 3000 nM; the “hTREM2 Emax” value is “+++ (Emax>150 and ≤250)”.
For the compound `Cc1cc([C@H]2CN(c3nc(-c4ccc(C(F)(F)F)nc4)c4nc(C)c(C)nc4n3)CCO2)ccn1` [Example 293, (S)-4-(6,7-dimethyl-4-(6-(trifluoromethyl)pyridin-3-yl)pteridin-2-yl)-2-(2-methylpyridin-4-yl)morpholine], the “hTREM2 Emax” value was “+++ (Emax>150 and ≤250)”.
In the case of `Cc1ncc([C@H]2CN(c3nc(-c4ccc(C(F)(F)F)nc4)c4nc(C)c(C)nc4n3)CCO2)cn1` [Example 294, (S)-4-(6,7-dimethyl-4-(6-(trifluoromethyl)pyridin-3-yl)pteridin-2-yl)-2-(2-methylpyrimidin-5-yl)morpholine], the EC50 lay in the range of 500 to 3000 nM; the “hTREM2 Emax” value was “+++ (Emax>150 and ≤250)”.
For the compound `Cc1ncc([C@@H]2CN(c3nc(-c4ccc(C(F)(F)F)nc4)c4nc(C)c(C)nc4n3)CCO2)cn1` [Example 295, (R)-4-(6,7-dimethyl-4-(6-(trifluoromethyl)pyridin-3-yl)pteridin-2-yl)-2-(2-methylpyrimidin-5-yl)morpholine], the EC50 was ≤ 50 nM; the “hTREM2 Emax” value was “+++ (Emax>150 and ≤250)”.
Compound `Cc1nc2cc([C@H]3CCO[C@@H](c4cnn(C5CC5)c4)C3)nc(-c3ccc(Cl)cc3F)c2nc1C` [Example 296, 5-(4-chloro-2-fluorophenyl)-7-((2R,4S)-2-(1-cyclopropyl-1H-pyrazol-4-yl)tetrahydro-2H-pyran-4-yl)-2,3-dimethylpyrido[3,4-b]pyrazine] came in with a concentration giving a half-maximal response (EC50) of 3000 to 100000 nM.
Same read-out and setting: for `Cc1nc2cc([C@@H]3CCO[C@H](c4cnn(C5CC5)c4)C3)nc(-c3ccc(Cl)cc3F)c2nc1C` [Example 297, 5-(4-chloro-2-fluorophenyl)-7-((2S,4R)-2-(1-cyclopropyl-1H-pyrazol-4-yl)tetrahydro-2H-pyran-4-yl)-2,3-dimethylpyrido[3,4-b]pyrazine] the value was 3000 to 100000 nM.
For the compound `Cc1nc2nc(N3CCO[C@@H](c4cnn(C5CC5)c4)C3)nc(-c3ccc(C(F)(F)F)nc3)c2nc1C` [Example 298, (S)-2-(1-cyclopropyl-1H-pyrazol-4-yl)-4-(6,7-dimethyl-4-(6-(trifluoromethyl)pyridin-3-yl)pteridin-2-yl)morpholine], the concentration for a half-maximal effect (EC50) was ≤ 50 nM; the “hTREM2 Emax” value is “+++ (Emax>150 and ≤250)”.
On to `Cc1cc([C@H]2CN(c3nc(-c4ccc(C(F)(F)F)nc4)c4nc(C)c(C)nc4n3)CCO2)cnn1` [Example 299, (S)-4-(6,7-dimethyl-4-(6-(trifluoromethyl)pyridin-3-yl)pteridin-2-yl)-2-(6-methylpyridazin-4-yl)morpholine], for which the EC50 was ≤ 50 nM; the “hTREM2 Emax” value was “+++ (Emax>150 and ≤250)”.
Take `Cc1nc2nc([C@H]3CCO[C@@H](c4cnn(C5CC5)c4)C3)nc(-c3ccc(C(F)(F)F)nc3)c2nc1C` [Example 300, 2-((2R,4S)-2-(1-cyclopropyl-1H-pyrazol-4-yl)tetrahydro-2H-pyran-4-yl)-6,7-dimethyl-4-(6-(trifluoromethyl)pyridin-3-yl)pteridine]: the EC50 lay within 50 to 500 nM; the “hTREM2 Emax” value is “+++ (Emax>150 and ≤250)”.
On to `Cc1nc2nc([C@@H]3CCO[C@H](c4cnn(C5CC5)c4)C3)nc(-c3ccc(C(F)(F)F)nc3)c2nc1C` [Example 301, 2-((2S,4R)-2-(1-cyclopropyl-1H-pyrazol-4-yl)tetrahydro-2H-pyran-4-yl)-6,7-dimethyl-4-(6-(trifluoromethyl)pyridin-3-yl)pteridine], for which the EC50 was ≤ 50 nM; the “hTREM2 Emax” value was “+++ (Emax>150 and ≤250)”.
With `Cc1nc2nc(N3CCO[C@@H](c4cnn(C)c4)C3)nc([C@H]3CCC(C)(C)C3)c2nc1C` [Example 302, (S)-4-(4-((S)-3,3-dimethylcyclopentyl)-6,7-dimethylpteridin-2-yl)-2-(1-methyl-1H-pyrazol-4-yl)morpholine], the half-maximal effective concentration (EC50) is 50 to 500 nM; the “hTREM2 Emax” value is “+ (Emax>45 and ≤100)”.
With `Cc1nc2nc(N3CCO[C@@H](c4cnn(C)c4)C3)nc([C@@H]3CCC(C)(C)C3)c2nc1C` [Example 303, (S)-4-(4-((R)-3,3-dimethylcyclopentyl)-6,7-dimethylpteridin-2-yl)-2-(1-methyl-1H-pyrazol-4-yl)morpholine], the EC50 lay in the range of 50 to 500 nM; the “hTREM2 Emax” value was “++ (Emax>100 and ≤150)”.
For the compound `CN1Cc2c(-c3ccc(Cl)cc3F)cc(N3CCO[C@H](c4cnn(C)c4)C3)nc2C1=O` [Example 304, (R)-4-(4-chloro-2-fluorophenyl)-6-methyl-2-(2-(1-methyl-1H-pyrazol-4-yl)morpholino)-5,6-dihydro-7H-pyrrolo [3,4-b]pyridin-7-one], the EC50 lay within 500 to 3000 nM; the “hTREM2 Emax” value is “+++ (Emax>150 and ≤250)”.
Consider `Cc1nc2nc([C@H]3CCO[C@@H](c4cnn(C5CC5)c4)C3)nc(-c3ccc(F)cc3F)c2nc1C` [Example 305, 2-((2R,4S)-2-(1-cyclopropyl-1H-pyrazol-4-yl)tetrahydro-2H-pyran-4-yl)-4-(2,4-difluorophenyl)-6,7-dimethylpteridine], for which the EC50 was in the range of 50 to 500 nM; the “hTREM2 Emax” value was “+++ (Emax>150 and ≤250)”.

Source of the values: patent US11884675B2, “Heterocyclic compounds as triggering receptor expressed on myeloid cells 2 agonists and methods of use” (AMGEN INC., priority 2020, dated 2024).
